Usually IC50 stands for the concentration needed to halve the response being measured.

The target in this assay is T1, recombinant human MetAP2 (Homo sapiens, UniProt P50579).
T1 construct: made in house; host or cells: Sf9 insect cells
Nature of the assay: Inhibition of recombinant human MetAP2 activity (MAS substrate, amino acid oxidase/Amplex red fluorescence). It counts as biochemical. To be noted: manganese enzyme, 0.75 mM MAS substrate, 30 minutes at 25° C., pH 7.5, 1% DMSO; read-out: Activity (IC50 class, MetAP2 inhibition). As for the experimental part:
Compounds are tested for their capacity to inhibit recombinant human MetAP2 activity using the following assay.
Human recombinant MetAP2 expressed in Sf9 cells followed by affinity purification and EDTA treatment to remove endogenous active site cation was dialysed against MnCl2 to produce the manganese enzyme used in the assay. The assay was carried out for 30 minutes at 25° C. in 50 mM HEPES buffer containing 100 mM NaCl, pH 7.5 the presence of 0.75 mM Methionine-Alanine-Serine (MAS) substrate and 50 μg/ml amino acid oxidase using a dilution of purified MetAP2 giving>3-fold signal:noise. Cleavage of the substrate by MetAP2 and oxidation of free methionine by amino acid oxidase was detected and quantified using fluorescence generated by Amplex red (10-acetyl-3,7-dihydroxyphenoxazine) in combination with horseradish peroxidase which detects H2O2 released during the oxidation step. The fluorescent signal was detected using a multiwell fluorimeter. Compounds were diluted in DMSO prior to addition to assay buffer, the final DMSO concentration in the assay being 1%.
The IC50 is defined as the concentration at which a given compound achieves 50% inhibition of control. IC50 values are calculated using the XLfit software package (version 2.0.5).

T1 sequence (P50579 whole entry): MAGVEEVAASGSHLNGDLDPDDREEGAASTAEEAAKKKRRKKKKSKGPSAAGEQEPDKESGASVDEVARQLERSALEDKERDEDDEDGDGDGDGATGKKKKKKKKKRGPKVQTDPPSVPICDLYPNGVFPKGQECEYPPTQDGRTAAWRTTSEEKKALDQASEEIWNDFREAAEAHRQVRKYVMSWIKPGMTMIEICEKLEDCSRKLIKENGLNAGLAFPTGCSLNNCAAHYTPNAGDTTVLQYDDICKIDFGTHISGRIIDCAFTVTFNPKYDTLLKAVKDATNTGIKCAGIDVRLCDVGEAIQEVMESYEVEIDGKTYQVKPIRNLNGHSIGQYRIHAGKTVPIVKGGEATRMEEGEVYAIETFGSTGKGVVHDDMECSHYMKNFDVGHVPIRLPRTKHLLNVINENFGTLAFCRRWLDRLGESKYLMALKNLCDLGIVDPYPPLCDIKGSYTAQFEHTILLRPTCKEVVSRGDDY

`CCN(CC)C/C=C\c1cc(F)ccc1S(=O)(=O)Nc1ccc2c(nc3n2CCC3)c1C(=O)O` [6-[2-((Z)-3-Diethylaminoprop-1-enyl)-4-fluorobenzenesulfonylamino]-2,3-dihydro-1H-benzo[d]pyrrolo[1,2-a]imidazole-5-carboxylic acid]: the half-inhibitory concentration (IC50) is more than 500 nM.

Take `O=C(O)c1c(NS(=O)(=O)c2ccccc2)ccc2c1cc1n2CCC1` [7-Benzenesulfonylamino-2,3-dihydro-1H-pyrrolo[1,2-a]indole-8-carboxylic acid]: the IC50 is more than 500 nM.

For `CCN(CC)C/C=C\c1cc(F)ccc1S(=O)(=O)Nc1ccc2c(c1C(=O)O)CCC1CCCN21` (centres unmarked) [7-[2-((Z)-3-Diethylaminoprop-1-enyl)-4-fluorobenzenesulfonylamino]-1,2,3,3a,4,5-hexahydropyrrolo[1,2-a]quinoline-6-carboxylic acid], the IC50 lay in the range of 50 to 500 nM.

In the case of `CCN(CC)C/C=C\c1cc(F)ccc1S(=O)(=O)Nc1ccc2c(c1C(=O)O)CC1CCCN21` (centres unmarked) [7-[2-((Z)-3-Diethylaminoprop-1-enyl)-4-fluorobenzenesulfonylamino]-2,3,9,9a-tetrahydro-1H-pyrrolo[1,2-a]indole-8-carboxylic acid], the IC50 was in the range of 50 to 500 nM.

For `CCN(CC)C/C=C\c1cc(F)ccc1S(=O)(=O)Nc1ccc2c(cc3n2CCC3)c1C(=O)O` [7-[2-((Z)-3-Diethylaminoprop-1-enyl)-4-fluorobenzenesulfonylamino]-2,3-dihydro-1H-pyrrolo[1,2-a]indole-8-carboxylic acid], the IC50 is less than 50 nM.

In the case of `CCN(CC)C/C=C\c1cc(F)ccc1S(=O)(=O)Nc1ccc2c(c1C(=O)O)OC[C@H]1CCN21` [(R)-6-[2-((Z)-3-Diethylaminoprop-1-enyl)-4-fluorobenzenesulfonylamino]-1,2,2a,3-tetrahydro-4-oxa-8b-azacyclobuta[a]naphthalene-5-carboxylic acid], the IC50 is more than 500 nM.

`CCN(CC)C/C=C\c1cc(F)ccc1S(=O)(=O)Nc1ccc2c(c1C(=O)O)OC[C@H]1CCCN21` [(R)-7-[2-((Z)-3-Diethylaminoprop-1-enyl)-4-fluorobenzenesulfonyl-amino]-2,3,3a,4-tetrahydro-1H-benzo[b]pyrrolo[1,2-d][1,4]oxazine-6-carboxylic acid]: the 50% inhibitory concentration (IC50) is 50 to 500 nM.

Regarding `CCN(CC)C/C=C\c1cc(F)ccc1S(=O)(=O)Nc1ccc2c(c1C(=O)O)OC[C@@H]1CCCN21` [(S)-7-[2-((Z)-3-Diethylaminoprop-1-enyl)-4-fluorobenzenesulfonyl-amino]-2,3,3a,4-tetrahydro-1H-benzo[b]pyrrolo[1,2-d][1,4]oxazine-6-carboxylic acid], the IC50 lay in the range of 50 to 500 nM.

The values above are taken from US9561230B2, “Aryl-substituted tricyclic sulfonamides as methionyl aminopeptidase 2 modulators” (Zafgen, Inc., priority 2011, dated 2017).
